Consider two compounds from patent US20070269494A1, “Compositions and methods for enhancing active agent absorption” (Nexus Pharma, Inc., priority 2006, published 2007).

The assay deals with Sprague-Dawley rats. As to the kind of experiment: Blood glucose depression by intracolonically administered bovine pancreatic insulin with absorption enhancer. The assay is classed as in vivo. The conditions noted are these: for Blood glucose as % of basal level: enhancer 0 mg/kg (insulin without enhancer), intracolonic, rats. Here is the method: It is neutralized by 1 equivalent of sodium hydroxide. The pH is adjusted to 7-8 by 1N HCl and saturated sodium bicarbonate. Bovine pancreatic insulin (1.75 mL; Sigma, 10 mg/mL; in pH 8.2 HEPES buffer) is added and mixed by gentle swirling. The solution density is determined so that the required dose may be calculated.
The solution is then given to Sprague-Dawley rats (female, 250-300 g, n=3), intracolonically. Blood samples are taken from the tail vein and glucose levels measured using an OneTouch® UltraSmart® blood glucose meter.
As insulin reduces glucose levels in the blood, a depression in glucose levels indicates insulin reaching the blood efficaciously.

As to `COC(=O)c1ccc(NC(=O)CCC(=O)O)cc1O` [Example 20, methyl 4-(3-carboxy-propionylamino)], for the setting “enhancer dose 200 mg/Kg, insulin 7 mg/Kg, procedure of Example 12”, the “50% depression at 60 min. (blood glucose from basal level)” value was “negative (a 50% reduction in glucose levels was not reached in 60 minutes)”.
For the compound “bovine pancreatic insulin: Bovine pancreatic insulin (Sigma, 10 mg/mL; in pH 8.2 HEPES buffer), the active agent co-administered”, the “Blood glucose as % of basal level” value is, setting by setting: (0 min) 100%; (30 min) 94 ± 4%; (60 min) 102 ± 7%; (90 min) 105 ± 3%; (120 min) 107 ± 7%; (150 min) 94 ± 7%. In addition, the “Blood glucose as % of basal level” value is on record as 111 ± 7% (180 min), 113 ± 4% (210 min) and 100 ± 7% (240 min).
